Where two headings read alike, the source gives them in different places.
Experiments:
Assay type in all cases: cell-based, rodent
CRAC channel = CRAC channel (Rattus norvegicus, UniProt Q5M848); experiment: Inhibition of Ca2+ influx in thapsigargin-activated RBL-2H3 mast cells; conditions: for inhibition at 100 µM: RBL-2H3, read-out: Inhibition of Ca2+ influx at 100 µM (no IC50)
TNFα = TNFα protein secretion by thapsigargin-activated RBL cells, ELISA; conditions: 4 h, read-out: IC50 (µM) TNFα
RBL-2H3 cells = experiment: β-hexosaminidase release; conditions: highest concentration tested
NFAT-c1 = conditions: 10 µM and higher concentrations

Sequence of CRAC channel (Q5M848 whole entry): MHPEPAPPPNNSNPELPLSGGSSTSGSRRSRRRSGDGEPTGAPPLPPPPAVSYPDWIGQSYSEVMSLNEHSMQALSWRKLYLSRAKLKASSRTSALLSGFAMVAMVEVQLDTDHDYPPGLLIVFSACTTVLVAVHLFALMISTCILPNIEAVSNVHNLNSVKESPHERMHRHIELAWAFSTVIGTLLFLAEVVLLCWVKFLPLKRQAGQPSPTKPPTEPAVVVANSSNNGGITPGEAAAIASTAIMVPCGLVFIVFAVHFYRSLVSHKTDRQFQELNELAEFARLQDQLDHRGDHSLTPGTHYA

In the case of `O=C(Nc1ccccc1F)c1nn(Cc2ccc(Cl)cc2Cl)c2ccccc12` [Compound 12c], the IC50 (CRAC channel) is reported as over 30 µM.
With `O=C(Nc1cnns1)c1nn(Cc2ccc(Cl)cc2Cl)c2ccccc12` [Compound 12h] the inhibition at 100 µM (CRAC channel) was under 50%.
`O=C(Nc1nn(Cc2ccc(Cl)cc2Cl)c2ccccc12)c1ccc(F)cc1F` [Compound 9f] showed an inhibition at 100 µM (CRAC channel) of under 50%.
Compound `Cc1nnsc1C(=O)Nc1nn(Cc2ccc(Cl)cc2Cl)c2ccccc12` [Compound 9e] has an IC50 (CRAC channel) of over 30 µM and an inhibition at 30 µM (CRAC channel; RBL-2H3, read-out: Inhibition of Ca2+ influx at 30 µM) of about 50%.
`O=C(Nc1nn(Cc2ccc(Cl)cc2Cl)c2ccccc12)c1c(F)cccc1F` [Compound 9a] gave an inhibition at 100 µM (CRAC channel) of under 50%.
`O=C(Nc1ccc(F)cc1F)c1nn(Cc2ccc(Cl)cc2Cl)c2ccccc12` [Compound 12e] gave an IC50 (TNFα) of 0.64 µM.
“N-[1-[(2,4-dichlorophenyl)methyl]indazol-3-yl]-3-fluoro-pyridine-4-carboxamide [Compound 12d]” was tested, and the “Inhibition of β-hex release (in words)” value (RBL-2H3 cells) was “nearly complete inhibition of β-hex release”, the “Level of nuclear NFAT (in words)” value (NFAT-c1) was “restore the levels of nuclear NFAT to that of resting MCs” and the IC50 (CRAC channel; read-out: IC50 (µM) Ca2+ influx, Table 3, SD <20%) was 0.67 µM. The IC50 (CRAC channel; read-out: IC50 (µM), inhibition of Ca2+ influx, indazole derivatives, Table 1, RBL-2H3 cells activated with Tg 1 µM, SD <35%) was 0.67 µM.

From paper PMC5271583 (Bioorganic & medicinal chemistry letters, 2016)
